This series deals with IRF4. To be noted: ASO.

“And” between values parts separate entries of the source, which are not always exact repeats. Equal values may be shown once. After the bases stand the sugars from the 5' end (letter, count) and the backbone: PS all phosphorothioate, else s phosphorothioate and o phosphodiester by linkage. Methylation of C is not given here. e = 2'-O-(2-methoxyethyl) (MOE); k = constrained ethyl (cEt); d = 2'-deoxy (DNA)

Among the data in the OligoGym collection are target mRNA inhibition values, retold here.

For the sequence AGCATCACTATTAAGA (sugars k3 d10 k3, PS), the target mRNA inhibition by setting is: (MM.1R, 0.0625 µM) -5%; (MM.1R, 0.074 µM) 2%; (MM.1R, 0.222 µM) 10%; (MM.1R, 0.25 µM) 1%; (MM.1R, 0.666 µM) 10%; (MM.1R, 1 µM) 10%. Moreover, the target mRNA inhibition came to 11% (MM.1R, 2 µM); 26% (MM.1R, 4 µM); 72% (SK-MEL-28, 4 µM). In the case of AGAATAAACACCCCTT (sugars k3 d10 k3, PS), under “SK-MEL-28, 4 µM”, the target mRNA inhibition came to 74%. Still for that read-out and setting: with CTCCATTCAAGCCAGT (sugars k3 d10 k3, PS) the figure was 58%. “ACAGTGACTTGCATCC (sugars kddddddddddkekek, PS)”: for the setting “MM.1R, 1 µM”, the target mRNA inhibition was -5%.

Turning to GTAAACTTGGCTGTGG (sugars k3 d10 k3, PS), the target mRNA inhibition (SK-MEL-28, 4 µM) was 18%. For TGGTGGGTCCTGGCAG (sugars k3 d10 k3, PS), the target mRNA inhibition (SK-MEL-28, 4 µM) came out at 23%. For the sequence TGACTCCATGAGGTTT (sugars k3 d10 k3, PS), the target mRNA inhibition (SK-MEL-28, 4 µM) amounted to 65%.

TCTGAGATGTCCAGCT (sugars k3 d10 k3, PS): under “SK-MEL-28, 4 µM”, the target mRNA inhibition stood at 45%. The same measure, in the same setting: with CTGTAACAGGCTATCA (sugars k3 d10 k3, PS) the figure was 44%. ACTCTTAGGCACATCA (sugars k3 d10 k3, PS): for the setting “MM.1R, 1 µM”, the target mRNA inhibition was determined as 27%. For AAACTTGGGTCACTTA (sugars k3 d10 k3, PS), the target mRNA inhibition (MM.1R, 1 µM) was 5%. For the sequence GTCCCTCCAGCTTCGG (sugars k3 d10 k3, PS), the target mRNA inhibition (SK-MEL-28, 4 µM) came to 3%. For the sequence CACCTCTTCACTACCT (sugars k3 d10 k3, PS), the target mRNA inhibition (MM.1R, 1 µM) worked out at 0%.

Consider GTTAAGTACTTGGACA (sugars k3 d10 k3, PS), for which, under “SK-MEL-28, 4 µM”, the target mRNA inhibition is 32%. Still for that read-out and setting: the value for GCCGCTGTCGATCTGG (sugars k3 d10 k3, PS) was 24%. As for GGATAACCTGAACATG (sugars k3 d10 k3, PS), the target mRNA inhibition (MM.1R, 1 µM) was determined as 9%.

Turning to GGGTTAAAGATGTTAC (sugars k3 d10 k3, PS), the target mRNA inhibition (SK-MEL-28, 4 µM) was 50%. CCACAAGAAAGAGACC (sugars k3 d10 k3, PS): the target mRNA inhibition (SK-MEL-28, 4 µM) was -9%. Regarding GATCATCAACTTCTTA (sugars k3 d10 k3, PS), for the setting “SK-MEL-28, 4 µM”, the target mRNA inhibition came to 47%. For CCACAAGCAGTGATGT (sugars k3 d10 k3, PS), the target mRNA inhibition (MM.1R, 1 µM) amounted to 16%. For the sequence CACTGAACCATGTTCC (sugars k3 d10 k3, PS), the target mRNA inhibition (SK-MEL-28, 4 µM) came out at 61%.

As to “ACGGAAGTTTACACTG (sugars kkdddddddddkekek, PS)”, the target mRNA inhibition (MM.1R, 1 µM) came out at 21%. Take CCGCGAAGGCTCCTAC (sugars k3 d10 k3, PS): the target mRNA inhibition (SK-MEL-28, 4 µM) amounted to 14%.

TCCACCTGCATCGAGA (sugars k3 d10 k3, PS): the target mRNA inhibition (SK-MEL-28, 4 µM) came out at 47%. As for “AGCATTTTATCATCCG (sugars kkddddddddddkeke, PS)”, under “MM.1R, 1 µM”, the target mRNA inhibition was 33%. For the sequence TGAAGCAACACGGGAA (sugars k3 d10 k3, PS), the target mRNA inhibition (SK-MEL-28, 4 µM) was 60%. Regarding GTTCCTGTCACCTGGC (sugars k4 d8 k4, PS), the target mRNA inhibition (SK-MEL-28, 4 µM) amounted to 12%. Consider CAATTTATGCCATGGA (sugars k3 d10 k3, PS), for which the target mRNA inhibition was -4% (MM.1R, 0.074 µM); 5% (MM.1R, 0.222 µM); 9% (MM.1R, 0.666 µM); 40% (MM.1R, 2 µM); 62% (SK-MEL-28, 4 µM). Turning to AAGGATGGGACCGCCC (sugars k3 d10 k3, PS), the target mRNA inhibition (SK-MEL-28, 4 µM) worked out at 39%. TTAGAAAGCCCTCACC (sugars k3 d10 k3, PS): the target mRNA inhibition (SK-MEL-28, 4 µM) was -16%. For the sequence GGGCCCGTCCCAGTAG (sugars k3 d10 k3, PS), the target mRNA inhibition (SK-MEL-28, 4 µM) worked out at 20%. With ATTCAGGAGAGCCCCT (sugars k3 d10 k3, PS), for the setting “MM.1R, 1 µM”, the target mRNA inhibition is -15%.

On to CTACAAGCAGTCATCA (sugars k3 d10 k3, PS), for which, under “SK-MEL-28, 4 µM”, the target mRNA inhibition came to 44%. For the sequence “GGCACATCAATGTTTT (sugars k2 d9 e3 k2, PS)”, for the setting “MM.1R, 1 µM”, the target mRNA inhibition is 22% and 36%.
